In US20090004185A1, “AMINO-SUBSTITUTED QUINAZOLINE DERIVATIVES AS INHIBITORS OF BETA-CATENIN/TCF-4 PATHWAY AND CANCER TREATMENT AGENTS” (WYETH, priority 2007, published 2009):

Assays:
β-catenin/Tcf-4 = test: cells; format: cell-based; details: 24 hours of incubation with compound, ratio Firefly/Renilla luciferase
From the text: Background cell line: SW480 colorectal carcinoma DNA constructs:
1) Tcf-4-Luc: Tcf-4 binding sites driving Firefly Luciferase in the pGL3 vector—to measure the activity of β-catenin/Tcf-4;
(§1) 2) SV40-Luc: SV40 binding site driving Firefly Luciferase in the pGL3 vector—as a control for non-specific inhibitors; and
(§2) 3) SV40-R-Luc: SV40 binding site driving Renilla Luciferase in the pGL3 vector—as an internal control for cell number and toxicity.
This screen uses 3 cell lines derived from SW480 and selected to contain the above luciferase reporters integrated into their chromosomes as follows: […]
(§3) Cells: Tcf22C11 and SV5A8 were grown in the presence of 500 μg/ml G418 and Tcf 33.13 was grown in the presence of 500 μg/ml G418+125 μg/ml Zeocin to maintain the integrated reporters. The cells were trypsinized and plated at 1×10^4 cells/well in opaque 96 well plates.
The compounds were diluted as follows: The compounds were stored frozen in dimethyl sulfoxide (DMSO) at […]. Compounds were initially titrated in DMSO to make a 1000×DMSO stock solution. Compounds were then diluted 1:25 into media/DMSO (DMEM+10% FBS+9% DMSO). Using the Biomek Multimek, the diluted compounds were mixed well and immediately added to the plated cells in a 1:40 dilution. The final concentration of DMSO in the assay plates was 0.316% DMSO.
(§4) Assay Readout: The luciferase signal was detected using a luciferase detection kit from Promega. Until December 2003, Promega's Dual-Luciferase® Reporter (DLR™) Assay System was used to detect luciferase activity. Briefly, after 24 hours of incubation with compound, culture media was removed by aspiration and 20 ul of passive lysis buffer (Promega) per well was added. The plates were shaken for 15 min. Firefly substrate was then added and the resulting luminescence was immediately read on a CCD camera imaging device or a luminometer. After quantifying the firefly luminescence, the reaction was quenched, and the Renilla luciferase reaction was initiated simultaneously by adding Stop & Glo® Reagent to the same sample. Renilla luciferase was then quantified using the CCD camera or luminometer.
Promega's Dual-Glo™ Luciferase Assay System can be used for luciferase detection. […] Briefly, after 24 hours of incubation with compound, culture media was removed by aspiration and 75 ul of fresh medium was added. Add 75 ul of Dual-Glo Luciferase Reagent (Promega) to each well and mix by shaking for 10 minutes on a plate shaker. Then, measure the firefly luminescence on a CCD camera imaging device or a luminometer. After quantifying the firefly luminescence, add 75 ul of Dual-Glo Stop & Glo Reagent (Promega) to each well and mix for 10 minutes. Renilla luciferase was then quantified using the CCD camera or luminometer.
(§5) This assay was meant to confirm primary leads and determine IC50s. Compounds were tested at titrated dilutions. The raw data for this assay was reported in protocol 2463-B. Protocol 2463-C contains the IC50 calculations based on the raw data. The data calculations were done as follows:
(§6) The data was expressed as % of control for both Firefly and Renilla Luciferase. The ratio of FF/Renilla (F/R) was then calculated and averaged between duplicate plates. The data was then plotted using LSW Data Analysis in Microsoft Excel. IC50s were determined by plotting the data in the LSW Data Analysis program using model 33. The IC50s (nM) for all three cell lines were reported.

SV40-Luc = SV40-Luc control luciferase reporter assay, SV 5A8 cell line (SV40-Luc and SV40-R-Luc), control for non-specific inhibitors; format: cell-based, human; details: SV 5A8 cells derived from SW480, 24 hours of incubation with compound, ratio Firefly/Renilla luciferase
From the text: Background cell line: SW480 colorectal carcinoma DNA constructs: […]
as §1, §2
This screen uses 3 cell lines derived from SW480 and selected to contain the above luciferase reporters integrated into their chromosomes as follows:
SV 5A8—SV40-Luc and SV40-R-Luc
as §3
Compounds: 20-24 hours after cell plating, compounds were added at titrated concentrations between […]. The compounds were diluted as follows: The compounds were stored frozen in dimethyl sulfoxide (DMSO) at […]. Compounds were initially titrated in DMSO to make a 1000×DMSO stock solution. Compounds were then diluted 1:25 into media/DMSO (DMEM+10% FBS+9% DMSO). Using the Biomek Multimek, the diluted compounds were mixed well and immediately added to the plated cells in a 1:40 dilution. The final concentration of DMSO in the assay plates was 0.316% DMSO.
as §4
Promega's Dual-Glo™ Luciferase Assay System can be used for luciferase detection. It was similar to the DLR Assay, however, unlike the DLR which has to be read immediately due to decaying signal, the signal in the Dual-Glo™ Luciferase Assay was stable for up to 2 hours. Briefly, after 24 hours of incubation with compound, culture media was removed by aspiration and 75 ul of fresh medium was added. Add 75 ul of Dual-Glo Luciferase Reagent (Promega) to each well and mix by shaking for 10 minutes on a plate shaker. Then, measure the firefly luminescence on a CCD camera imaging device or a luminometer. After quantifying the firefly luminescence, add 75 ul of Dual-Glo Stop & Glo Reagent (Promega) to each well and mix for 10 minutes. Renilla luciferase was then quantified using the CCD camera or luminometer.
as §5, §6

[1] = Homo sapiens, SW480, 24 h, Tcf 33.13 cells derived from SW480
[2] = Homo sapiens, Tcf22C11, 24 h, Tcf 22C11 cells derived from SW480
[3] = Tcf 22C11 cells derived from SW480
[4] = Tcf 33.13 cells derived from SW480

IC50 (β-catenin/Tcf-4; [1]) [nM] | IC50 (β-catenin/Tcf-4; [2]) [nM] | IC50 (SV40-Luc; Homo sapiens, SV5A8, 24 h) [nM] | IC50 (β-catenin/Tcf-4; [3]) [nM] | IC50 (β-catenin/Tcf-4; [4]) [nM] | IC50 (SV40-Luc) [nM] | SMILES
118 | 249 | > 4910 |  |  |  | C/C=C/c1ccc2c(NCc3ccc(NC(=O)c4ccc(Cl)nc4)cc3)nc(N(C)C)nc2c1 [Example 112, 6-chloro-N-{4-[({2-(dimethylamino)-7-[(1E)-prop-1-en-1-yl]quinazolin-4-yl}amino)methyl]phenyl}nicotinamide]
666 | 1010 | > 2540 |  |  |  | CN(C)c1nc(NCc2ccc(NC(=O)c3ccc(F)cc3)cc2)c2ccc(C3CC3)cc2n1 [Example 104, N-[4-({[7-cyclopropyl-2-(dimethylamino)quinazolin-4-yl]amino}methyl)phenyl]-4-fluorobenzamide]
1950 | 5390 | > 11500 |  |  |  | CN(C)c1nc(NCc2ccc(NC(=O)c3ccc(F)cc3)cc2)c2cc(F)ccc2n1 [Example 60, N-[4-({[2-(dimethylamino)-6-fluoroquinazolin-4-yl]amino}methyl)phenyl]-4-fluorobenzamide]
 |  |  | 712 | 537 | > 4680 | CCCC/C=C/c1ccc2nc(N(C)C)nc(NCc3ccc(C(=O)Nc4ccc(F)cc4)cc3)c2c1 [Example 175, E-(4-((2-dimethylamino)-6-(hex-1-enyl)quinazolin-4-ylamino)methyl)-N-(4-fluorophenyl)benzamide]
708 | 1130 | > 23100 |  |  |  | CN(C)c1nc(NCc2ccc(NC(=O)c3ccc(Cl)nc3)cc2)c2ccccc2n1 [Example 128, 6-chloro-N-[4-({[2-(dimethylamino)quinazolin-4-yl]amino}methyl)phenyl]nicotinamide]
1190 | 2150 | > 8720 |  |  |  | CC(C)c1ccc2c(NCc3ccc(NC(=O)C4CCN(Cc5ccccc5)CC4)cc3)nc(N(C)C)nc2c1 [Example 63, 1-benzyl-N-[4-({[2-(dimethylamino)-7-isopropylquinazolin-4-yl]amino}methyl)phenyl]piperidine-4-carboxamide]
991 | 1380 | > 2830 |  |  |  | O=C(Nc1ccc(CNc2nc(NC3CCC3)nc3ccccc23)cc1)c1ccc(F)cc1 [Example 115, N-[4-({[2-(cyclobutylamino)quinazolin-4-yl]amino}methyl)phenyl]-4-fluorobenzamide]
3690 | > 4120 | > 8240 |  |  |  | O=C(Nc1ccc(CNc2nc(N3CCCC3)nc3ccc(C(F)(F)F)cc23)cc1)C1CCN(Cc2ccc(F)cc2)CC1 [Example 156, 1-(4-fluorobenzyl)-N-[4-({[2-pyrrolidin-1-yl-6-(trifluoromethyl)quinazolin-4-yl]amino}methyl)phenyl]piperidine-4-carboxamide]
987 | 1070 | > 5160 |  |  |  | Cc1ccc2nc(N3CCN[C@@H](C)C3)nc(NCc3ccc(NC(=O)c4ccc(F)cc4)cc3)c2c1 [Example 51, 4-fluoro-N-{4-[({6-methyl-2-[(3S)-3-methylpiperazin-1-yl]quinazolin-4-yl}amino)methyl]phenyl}benzamide]
847 | 2260 | > 8230 |  |  |  | Cc1ccc2nc(N3CCCC3)nc(NCc3ccc(NC(=O)C4CCN(Cc5ccccc5)CC4)cc3)c2c1 [Example 77, 1-benzyl-N-(4-{[(6-methyl-2-pyrrolidin-1-ylquinazolin-4-yl)amino]methyl}phenyl)piperidine-4-carboxamide]
467 | 539 | > 4200 |  |  |  | Cc1ccc(CN2CCC(C(=O)Nc3ccc(CNc4nc(N(C)C)nc5cc(C)ccc45)cc3)CC2)cc1 [Example 247, N-[4-({[2-(dimethylamino)-7-methylquinazolin-4-yl]amino}methyl)phenyl]-1-(4-methylbenzyl)piperidine-4-carboxamide]
 |  |  | 6990 | 6550 | > 9510 | O=C(Nc1ccc(CNc2nc(N3CCCC3)nc3ccc(C(F)(F)F)cc23)cc1)c1ccc(Cl)cc1 [Example 163]
924 | 538 | > 4950 |  |  |  | Cc1ccc2c(NCc3ccc(NC(=O)Nc4ccc(Br)cc4)cc3)nc(N(C)C)nc2c1 [Example 179, N-(4-bromophenyl)-N′-[4-({[2-(dimethylamino)-7-methylquinazolin-4-yl]amino}methyl)phenyl]urea]
751 | 919 | > 5140 |  |  |  | CNc1nc(NCc2ccc(NC(=O)c3ccc(Cl)cc3)cc2)c2cc(C(F)(F)F)ccc2n1 [Example 167, 4-chloro-N-[4-({[2-(methylamino)-6-(trifluoromethyl)quinazolin-4-yl]amino}methyl)phenyl]benzamide]
1310 | 1650 | > 22500 |  |  |  | Cc1cc(C)c2nc(N(C)C)nc(NCc3ccc(NC(=O)c4ccc(F)cc4)cc3)c2c1 [Example 52, N-[4-({[2-(dimethylamino)-6,8-dimethylquinazolin-4-yl]amino}methyl)phenyl]-4-fluorobenzamide]
> 22400 | > 22400 | > 22400 |  |  |  | O=C(O)CNc1nc(NCc2ccc(NC(=O)c3ccc(F)cc3)cc2)c2ccccc2n1 [Example 127, N-[4-({4-[(4-fluorobenzoyl)amino]benzyl}amino)quinazolin-2-yl]glycine]
2020 | 1460 | > 5610 |  |  |  | Cc1ccc2c(NCc3ccc(NC(=O)Nc4ccc(F)cc4)cc3)nc(N(C)C)nc2c1 [Example 180, N-[4-({[2-(dimethylamino)-7-methylquinazolin-4-yl]amino}methyl)phenyl]-N′-(4-fluorophenyl)urea]
825 | 1380 | > 5640 |  |  |  | CCN(C)c1nc(NCc2ccc(NC(=O)c3ccc(F)cc3)cc2)c2ccc(C)cc2n1 [Example 210, N-{4-[({2-[ethyl(methyl)amino]-7-methylquinazolin-4-yl}amino)methyl]phenyl}-4-fluorobenzamide]
1840 | 1010 | > 9360 |  |  |  | Cc1ccc2nc(N(C)C)nc(N[C@@H](C)c3ccc(NC(=O)c4ccc(Cl)nc4)cc3)c2c1 [Example 274, (S)-6-chloro-N-(4-(1-(2-(dimethylamino)-6-methylquinazolin-4-ylamino)ethyl)phenyl)nicotinamide]

SMILES | IC50 (β-catenin/Tcf-4; [1]) [nM] | IC50 (β-catenin/Tcf-4; [2]) [nM] | IC50 (SV40-Luc; Homo sapiens, SV5A8, 24 h) [nM] | IC50 (β-catenin/Tcf-4; [3]) [nM] | IC50 (β-catenin/Tcf-4; [4]) [nM] | IC50 (SV40-Luc) [nM]
CNc1nc(NCc2ccc(NC(=O)C3CCN(Cc4ccc(F)cc4)CC3)cc2)c2cc(C(F)(F)F)ccc2n1 [Example 160] |  |  |  | 1450 | > 2210 | > 4410
